According to the kinase profiling compilation of Christmann-Franck et al. (2016):

Key:
Assay in all cases: KINOMEscan competition binding
Details in all cases: compound 0.1 µM
SYK (human) = SYK (human) (UniProt P43405)
TRPM6 (human) = TRPM6 (human) (UniProt Q9BX84)
STK4 (human) = STK4 (human) (UniProt Q13043)
[1] = tested on: ABL1 (human), P00519 [H396P]
PTK6 (human) = PTK6 (human) (UniProt Q13882)
[2] = tested on: ABL1 (human), P00519 [Q252H]
[3] = tested on: ALK (human), Q9UM73 [C1156Y]
PRPF4B (human) = PRPF4B (human) (UniProt Q13523)
PRKCQ (human) = PRKCQ (human) (UniProt Q04759)
MAPK14 (human) = MAPK14 (human) (UniProt Q16539)
ADCK3 (human) = ADCK3 (human) (UniProt Q8NI60)
SGK2 (human) = SGK2 (human) (UniProt Q9HBY8)
ICK (human) = ICK (human) (UniProt Q9UPZ9)
PIK3C2B (human) = PIK3C2B (human) (UniProt O00750)
PRKCI (human) = PRKCI (human) (UniProt P41743)
BMX (human) = BMX (human) (UniProt P51813)
DCLK3 (human) = DCLK3 (human) (UniProt Q9C098)
AKT3 (human) = AKT3 (human) (UniProt Q9Y243)
SRPK1 (human) = SRPK1 (human) (UniProt Q96SB4)
STK32A (human) = STK32A (human) (UniProt Q8WU08)
CDC42BPB (human) = CDC42BPB (human) (UniProt Q9Y5S2)
STK38L (human) = STK38L (human) (UniProt Q9Y2H1)
ACVRL1 (human) = ACVRL1 (human) (UniProt P37023)
CDKL3 (human) = CDKL3 (human) (UniProt Q8IVW4)
STK24 (human) = STK24 (human) (UniProt Q9Y6E0)
CDK2 (human) = CDK2 (human) (UniProt P24941)
DSTYK (human) = DSTYK (human) (UniProt Q6XUX3)
TSSK1B (human) = TSSK1B (human) (UniProt Q9BXA7)
MET (human) = MET (human) (UniProt P08581)
MAPK6 (human) = MAPK6 (human) (UniProt Q16659)
CASK (human) = CASK (human) (UniProt O14936)
MYLK4 (human) = MYLK4 (human) (UniProt Q86YV6)
[4] = tested on: RET (human), P07949 [M918T]
STK38 (human) = STK38 (human) (UniProt Q15208)
MAP2K1 (human) = MAP2K1 (human) (UniProt Q02750)
MAPK4 (human) = MAPK4 (human) (UniProt P31152)
[5] = tested on: ABL1 (human), P00519 [E255K]
CAMK1D (human) = CAMK1D (human) (UniProt Q8IU85)
CSNK1G3 (human) = CSNK1G3 (human) (UniProt Q9Y6M4)
RPS6KA3 KD1 (human) = RPS6KA3 KD1 (human) (UniProt P51812)

STK38L (human), sequence (Q9Y2H1 whole entry, looked up): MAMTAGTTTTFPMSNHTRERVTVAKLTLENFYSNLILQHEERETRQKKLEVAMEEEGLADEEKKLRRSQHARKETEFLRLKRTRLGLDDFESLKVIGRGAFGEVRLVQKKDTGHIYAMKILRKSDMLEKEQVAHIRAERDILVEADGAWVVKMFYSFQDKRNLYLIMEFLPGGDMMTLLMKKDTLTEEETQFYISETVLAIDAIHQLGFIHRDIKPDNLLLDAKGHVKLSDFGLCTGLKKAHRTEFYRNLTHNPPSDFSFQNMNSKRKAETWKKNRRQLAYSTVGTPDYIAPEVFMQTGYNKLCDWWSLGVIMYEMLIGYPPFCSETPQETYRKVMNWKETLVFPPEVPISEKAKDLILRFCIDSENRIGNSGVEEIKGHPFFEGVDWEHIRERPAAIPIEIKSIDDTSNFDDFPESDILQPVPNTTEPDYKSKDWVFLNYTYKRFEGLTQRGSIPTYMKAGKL
DSTYK (human), sequence (Q6XUX3 whole entry, looked up): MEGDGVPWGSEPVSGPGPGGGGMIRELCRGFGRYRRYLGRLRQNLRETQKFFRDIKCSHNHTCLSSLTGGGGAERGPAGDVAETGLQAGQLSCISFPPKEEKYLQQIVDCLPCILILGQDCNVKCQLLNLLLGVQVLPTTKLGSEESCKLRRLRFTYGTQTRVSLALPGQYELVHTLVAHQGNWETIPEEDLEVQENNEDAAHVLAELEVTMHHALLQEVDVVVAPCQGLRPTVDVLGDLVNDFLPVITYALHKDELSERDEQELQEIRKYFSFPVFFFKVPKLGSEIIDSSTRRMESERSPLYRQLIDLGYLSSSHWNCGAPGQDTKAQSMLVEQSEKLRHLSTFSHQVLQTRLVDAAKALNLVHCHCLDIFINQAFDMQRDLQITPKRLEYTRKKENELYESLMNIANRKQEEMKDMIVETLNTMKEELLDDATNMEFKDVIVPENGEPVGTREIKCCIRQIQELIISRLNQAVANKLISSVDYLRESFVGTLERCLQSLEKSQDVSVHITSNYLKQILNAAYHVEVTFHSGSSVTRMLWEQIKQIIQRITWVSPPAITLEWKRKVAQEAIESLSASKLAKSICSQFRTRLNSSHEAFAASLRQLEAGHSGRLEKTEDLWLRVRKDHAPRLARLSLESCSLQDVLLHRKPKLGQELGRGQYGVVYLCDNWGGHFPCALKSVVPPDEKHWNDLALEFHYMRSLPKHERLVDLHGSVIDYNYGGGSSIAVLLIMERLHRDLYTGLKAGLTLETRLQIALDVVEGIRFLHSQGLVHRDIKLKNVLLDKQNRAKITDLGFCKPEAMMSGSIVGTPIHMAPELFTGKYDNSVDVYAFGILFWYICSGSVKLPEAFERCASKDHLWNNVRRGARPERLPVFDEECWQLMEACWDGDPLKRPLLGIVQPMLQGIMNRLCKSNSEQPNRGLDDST
BMX (human), sequence (P51813 whole entry, looked up): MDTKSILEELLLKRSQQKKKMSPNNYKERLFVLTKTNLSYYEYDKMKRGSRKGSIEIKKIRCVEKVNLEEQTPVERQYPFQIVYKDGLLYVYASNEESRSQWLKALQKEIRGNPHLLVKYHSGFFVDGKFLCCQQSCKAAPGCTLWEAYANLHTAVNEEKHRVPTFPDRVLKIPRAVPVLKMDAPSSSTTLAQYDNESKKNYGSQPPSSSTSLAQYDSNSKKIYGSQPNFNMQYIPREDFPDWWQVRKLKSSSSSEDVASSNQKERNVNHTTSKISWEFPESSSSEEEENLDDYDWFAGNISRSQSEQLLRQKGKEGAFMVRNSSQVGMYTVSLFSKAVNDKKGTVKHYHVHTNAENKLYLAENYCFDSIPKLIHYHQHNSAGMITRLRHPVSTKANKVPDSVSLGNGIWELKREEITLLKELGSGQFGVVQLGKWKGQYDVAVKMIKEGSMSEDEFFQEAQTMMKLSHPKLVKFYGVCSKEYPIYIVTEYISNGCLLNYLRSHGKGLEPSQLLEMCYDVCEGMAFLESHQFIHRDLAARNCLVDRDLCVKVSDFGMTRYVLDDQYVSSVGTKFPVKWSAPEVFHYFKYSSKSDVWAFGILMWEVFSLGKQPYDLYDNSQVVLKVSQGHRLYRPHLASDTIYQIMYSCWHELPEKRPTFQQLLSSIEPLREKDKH
CAMK1D (human), sequence (Q8IU85 whole entry, looked up): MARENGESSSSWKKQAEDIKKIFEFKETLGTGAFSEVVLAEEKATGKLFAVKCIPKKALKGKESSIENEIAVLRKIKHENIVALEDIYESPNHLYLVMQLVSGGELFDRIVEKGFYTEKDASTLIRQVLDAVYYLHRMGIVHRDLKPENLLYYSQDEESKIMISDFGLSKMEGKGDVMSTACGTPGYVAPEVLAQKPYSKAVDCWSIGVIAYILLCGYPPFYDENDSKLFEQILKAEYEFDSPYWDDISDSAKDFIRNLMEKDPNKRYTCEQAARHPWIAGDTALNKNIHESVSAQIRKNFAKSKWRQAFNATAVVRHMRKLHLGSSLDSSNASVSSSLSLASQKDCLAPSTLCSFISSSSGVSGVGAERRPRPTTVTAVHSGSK
DCLK3 (human), sequence (Q9C098 whole entry, looked up): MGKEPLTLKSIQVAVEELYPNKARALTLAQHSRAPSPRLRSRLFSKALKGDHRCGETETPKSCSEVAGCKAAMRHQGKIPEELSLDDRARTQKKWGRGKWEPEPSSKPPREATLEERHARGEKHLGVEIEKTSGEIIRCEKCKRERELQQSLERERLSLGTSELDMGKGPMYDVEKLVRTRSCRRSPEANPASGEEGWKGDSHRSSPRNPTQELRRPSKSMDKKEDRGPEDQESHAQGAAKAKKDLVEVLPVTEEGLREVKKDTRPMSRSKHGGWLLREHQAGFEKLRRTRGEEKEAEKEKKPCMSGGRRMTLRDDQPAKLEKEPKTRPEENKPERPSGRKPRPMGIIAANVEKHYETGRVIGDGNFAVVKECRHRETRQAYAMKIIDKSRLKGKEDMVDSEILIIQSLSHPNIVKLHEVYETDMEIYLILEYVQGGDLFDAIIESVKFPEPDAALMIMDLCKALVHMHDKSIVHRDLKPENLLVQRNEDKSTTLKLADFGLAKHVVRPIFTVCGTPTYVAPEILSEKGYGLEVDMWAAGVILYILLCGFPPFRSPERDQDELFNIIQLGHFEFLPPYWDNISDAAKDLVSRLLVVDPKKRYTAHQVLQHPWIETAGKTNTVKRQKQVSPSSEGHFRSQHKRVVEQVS
STK32A (human), sequence (Q8WU08 whole entry, looked up): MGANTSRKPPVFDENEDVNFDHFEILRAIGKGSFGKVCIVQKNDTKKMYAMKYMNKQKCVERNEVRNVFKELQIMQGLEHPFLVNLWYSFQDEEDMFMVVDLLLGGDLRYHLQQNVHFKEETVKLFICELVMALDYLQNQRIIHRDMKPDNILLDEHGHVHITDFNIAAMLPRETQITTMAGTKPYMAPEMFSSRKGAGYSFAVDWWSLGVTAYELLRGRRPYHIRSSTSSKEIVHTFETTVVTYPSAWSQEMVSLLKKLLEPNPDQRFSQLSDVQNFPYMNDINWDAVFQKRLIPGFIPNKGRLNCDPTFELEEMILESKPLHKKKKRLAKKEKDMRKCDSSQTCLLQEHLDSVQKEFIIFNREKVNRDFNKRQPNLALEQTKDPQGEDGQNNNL
RET (human), P07949 [M918T], sequence (P07949 whole entry M918T, looked up): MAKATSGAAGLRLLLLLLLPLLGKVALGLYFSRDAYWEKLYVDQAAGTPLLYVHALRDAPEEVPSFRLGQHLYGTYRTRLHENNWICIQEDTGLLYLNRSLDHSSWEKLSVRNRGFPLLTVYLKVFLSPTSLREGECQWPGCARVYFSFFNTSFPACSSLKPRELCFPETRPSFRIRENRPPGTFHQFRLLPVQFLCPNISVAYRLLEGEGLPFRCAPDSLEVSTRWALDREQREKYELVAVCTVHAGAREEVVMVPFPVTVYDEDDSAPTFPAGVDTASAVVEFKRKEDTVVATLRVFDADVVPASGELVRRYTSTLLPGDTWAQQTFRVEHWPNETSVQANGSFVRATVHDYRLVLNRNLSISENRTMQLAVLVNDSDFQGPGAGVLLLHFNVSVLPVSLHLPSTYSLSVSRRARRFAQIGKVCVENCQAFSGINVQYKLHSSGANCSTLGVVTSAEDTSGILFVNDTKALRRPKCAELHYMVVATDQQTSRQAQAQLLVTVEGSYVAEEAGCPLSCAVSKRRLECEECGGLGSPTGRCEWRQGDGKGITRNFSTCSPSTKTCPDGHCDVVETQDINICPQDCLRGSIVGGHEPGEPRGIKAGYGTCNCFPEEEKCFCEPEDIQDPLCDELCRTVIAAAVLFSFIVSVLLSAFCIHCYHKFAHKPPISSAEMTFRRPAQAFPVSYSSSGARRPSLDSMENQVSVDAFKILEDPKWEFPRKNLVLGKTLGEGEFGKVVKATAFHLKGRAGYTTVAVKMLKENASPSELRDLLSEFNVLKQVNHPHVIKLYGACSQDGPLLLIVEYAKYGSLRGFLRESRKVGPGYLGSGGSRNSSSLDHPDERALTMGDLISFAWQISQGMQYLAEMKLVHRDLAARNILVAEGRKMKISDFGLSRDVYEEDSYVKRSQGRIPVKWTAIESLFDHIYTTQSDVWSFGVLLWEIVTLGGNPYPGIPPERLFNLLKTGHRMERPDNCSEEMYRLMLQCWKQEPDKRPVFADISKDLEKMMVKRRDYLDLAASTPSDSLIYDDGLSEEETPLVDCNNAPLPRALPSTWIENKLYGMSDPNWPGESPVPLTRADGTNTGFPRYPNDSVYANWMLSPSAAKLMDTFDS
MAPK14 (human), sequence (Q16539 whole entry, looked up): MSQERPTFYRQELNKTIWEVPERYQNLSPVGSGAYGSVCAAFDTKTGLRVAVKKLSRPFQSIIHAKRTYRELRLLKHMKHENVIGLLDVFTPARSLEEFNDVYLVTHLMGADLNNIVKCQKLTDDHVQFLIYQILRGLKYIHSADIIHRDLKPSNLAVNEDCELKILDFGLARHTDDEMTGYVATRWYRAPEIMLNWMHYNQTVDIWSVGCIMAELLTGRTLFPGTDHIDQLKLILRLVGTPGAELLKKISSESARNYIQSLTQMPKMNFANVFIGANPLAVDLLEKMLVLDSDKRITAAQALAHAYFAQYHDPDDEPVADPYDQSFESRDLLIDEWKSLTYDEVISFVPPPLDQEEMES

SMILES: CCc1ccc(C(=O)Nc2cc(CN3CCN(C)CC3)cc(C(F)(F)F)c2)cc1C#Cc1cnc2ccnn2c1
- kinase still bound, per cent of control (SYK (human)): 83%
- kinase still bound, per cent of control (TRPM6 (human)): 90%
- kinase still bound, per cent of control (STK4 (human)): 63%
- kinase still bound, per cent of control [1]: 100%
- kinase still bound, per cent of control (PTK6 (human)): 100%
- kinase still bound, per cent of control [2]: 100%
- kinase still bound, per cent of control [3]: 97%
- kinase still bound, per cent of control (PRPF4B (human)): 75%
- kinase still bound, per cent of control (PRKCQ (human)): 80%
- kinase still bound, per cent of control (MAPK14 (human)): 85%
- kinase still bound, per cent of control (ADCK3 (human)): 90%
- kinase still bound, per cent of control (SGK2 (human)): 94%
- kinase still bound, per cent of control (ICK (human)): 100%
- kinase still bound, per cent of control (PIK3C2B (human)): 100%
- kinase still bound, per cent of control (PRKCI (human)): 100%
- kinase still bound, per cent of control (BMX (human)): 100%
- kinase still bound, per cent of control (DCLK3 (human)): 100%
- kinase still bound, per cent of control (AKT3 (human)): 100%
- kinase still bound, per cent of control (SRPK1 (human)): 100%
- kinase still bound, per cent of control (STK32A (human)): 69%
- kinase still bound, per cent of control (CDC42BPB (human)): 78%
- kinase still bound, per cent of control (STK38L (human)): 100%
- kinase still bound, per cent of control (ACVRL1 (human)): 100%
- kinase still bound, per cent of control (CDKL3 (human)): 56%
- kinase still bound, per cent of control (STK24 (human)): 100%
- kinase still bound, per cent of control (CDK2 (human)): 84%
- kinase still bound, per cent of control (DSTYK (human)): 100%
- kinase still bound, per cent of control (TSSK1B (human)): 95%
- kinase still bound, per cent of control (MET (human)): 100%
- kinase still bound, per cent of control (MAPK6 (human)): 98%
- kinase still bound, per cent of control (CASK (human)): 100%
- kinase still bound, per cent of control (MYLK4 (human)): 93%
- kinase still bound, per cent of control [4]: 46%
- kinase still bound, per cent of control (STK38 (human)): 93%
- kinase still bound, per cent of control (MAP2K1 (human)): 100%
- kinase still bound, per cent of control (MAPK4 (human)): 90%
- kinase still bound, per cent of control [5]: 100%
- kinase still bound, per cent of control (CAMK1D (human)): 84%
- kinase still bound, per cent of control (CSNK1G3 (human)): 78%
- kinase still bound, per cent of control (RPS6KA3 KD1 (human)): 100%
